Several values for one entry are separate records, joined by “and”; a condition that tells them apart may be missing. Identical values can stand only once.
Tests used:
[1] = 298.15 K, 101.3 kPa, Liquid; for viscosity: Capillary tube (Ostwald / Ubbelohde) method; for speed of sound: Linear variable-path acoustic interferometer; for mass density: Pycnometric method
[2] = refractive index (Na D-line) (dimensionless); settings: 298.15 K; 101.33 kPa; Liquid
[3] = refractive index (Na D-line) (dimensionless); xn = mol fraction of the nth substance listed; settings: 298.15 K, 101.3 kPa, Liquid
[4] = xn = mol fraction of the nth substance listed; settings: 298.15 K, 101.3 kPa, Liquid; for viscosity: Capillary tube (Ostwald / Ubbelohde) method; for speed of sound: Linear variable-path acoustic interferometer; for mass density: Pycnometric method

C1COCO1 [1,3-dioxolane]
Settings	mass density [kg/m3]	refractive index	speed of sound	viscosity [mPa·s]
[1]	1058.7	–	1339.4 m/s and 1339.5 m/s	0.5894
[2]	–	1.3985	–	–

C1COCO1 [1,3-dioxolane] + CCCCCO
Settings	mass density, [4] [kg/m3]	refractive index, [3]	speed of sound, [4] [m/s]	viscosity, [4] [mPa·s]
x1 = 0.1168	832.9	1.4085	1278.8	2.505
x1 = 0.2293	854.5	1.4072	1287.5	1.885
x1 = 0.3377	876.6	1.406	1296.8	1.44
x1 = 0.4424	899.2	1.405	1305	1.063
x1 = 0.5434	922.5	1.404	1313.4	0.9063
x1 = 0.6409	946.8	1.403	1321.5	0.756
x1 = 0.7352	972.5	1.4022	1327.1	0.6472
x1 = 0.8264	999.3	1.401	1332.7	0.5704
x1 = 0.9146	1028.2	1.4	1337	0.5413
x1 = 1	1058.7	1.3985	1339.5	0.5894

C1COCO1 [1,3-dioxolane] + CCOCC
x1 = 1
Settings	mass density [kg/m3]	refractive index	speed of sound [m/s]	viscosity [mPa·s]
[3]	–	1.3985	–	–
[4]	1058.7	–	1339.4	0.5894

CCOCC [diethyl ether]
Settings	mass density [kg/m3]	refractive index	speed of sound [m/s]	viscosity [mPa·s]
[1]	708.3	–	982.3	0.2469
[2]	–	1.3515	–	–

CCOCC [diethyl ether] + C1COCO1
Settings	mass density, [4] [kg/m3]	refractive index, [3]	speed of sound, [4]	viscosity, [4] [mPa·s]
x2 = 0	708.3	1.3515	982.3 m/s	0.2469
x2 = 0.1	736.4	1.3568	1003.9 m/s	0.2656
x2 = 0.2	765.6	1.3604	1033.4 m/s	0.2844
x2 = 0.3001	796.3	1.3649	1067.4 m/s	0.3055
x2 = 0.4001	829	1.3696	1108.5 m/s	0.331
x2 = 0.5001	863.4	1.3743 and 1.375	1152.8 m/s and 1149.2 m/s	0.3604
x2 = 0.6001	899.7	1.3791	1191.4 m/s	0.3944
x2 = 0.7001	938.2	1.3842	1230.9 m/s	0.4345
x2 = 0.8	977	1.3893	1265.3 m/s	0.4784
x2 = 0.9	1018.4	1.3956	1302.4 m/s	0.5305

CCOCC [diethyl ether] + CCCCCO
Settings	mass density, [4] [kg/m3]	refractive index, [3]	speed of sound, [4] [m/s]	viscosity, [4] [mPa·s]
x1 = 0.1167	805.2	1.4043	1241.8	2.651
x1 = 0.2292	797.5	1.3977	1216.7	1.966
x1 = 0.3377	788.9	1.3922	1193.9	1.491
x1 = 0.4423	779.7	1.3874	1172.2	1.123
x1 = 0.5433	770.4	1.3825	1141.6	0.8294
x1 = 0.6409	759.5	1.3774	1110.7	0.6199
x1 = 0.7352	747.9	1.3724	1077.3	0.4811
x1 = 0.8263	736.1	1.3664	1046.3	0.382
x1 = 0.9146	723	1.3601	1011.2	0.3141
x1 = 1	708.3	1.3515	982.3	0.2469

CCCCCO [pentan-1-ol]
Settings	mass density [kg/m3]	refractive index	speed of sound [m/s]	viscosity
[1]	811.2	–	1271.6	3.504 mPa·s and 3.404 mPa·s
[2]	–	1.41	–	–

CCCCCO [pentan-1-ol] + C1COCO1
x2 = 0
Settings	mass density [kg/m3]	refractive index	speed of sound [m/s]	viscosity [mPa·s]
[3]	–	1.41	–	–
[4]	811.2	–	1271.6	3.504

CCCCCO [pentan-1-ol] + CCOCC
x2 = 0
Settings	mass density [kg/m3]	refractive index	speed of sound [m/s]	viscosity [mPa·s]
[3]	–	1.41	–	–
[4]	811.2	–	1271.6	3.504
